experiment: Particle size distribution; format: physicochemical; conditions: crystallized using ethyl acetate as taught in U.S. Pat. No. 5,399,578, after passing through 30 mesh sieve

Particle size distribution d10 [μ] | Particle size distribution d50 [μ] | Particle size distribution d90 [μ] | SMILES
5.039 | 77.29 | 383.55 | CCCCC(=O)N(Cc1ccc(-c2ccccc2-c2nnn[nH]2)cc1)[C@H](C(=O)O)C(C)C [Valsartan, N-(1-Oxopentyl)-N-[[2′-(1H-tetrazol-5-yl)[1,1′-biphenyl]-4-yl]methyl]-L-valine]

same assay, conditions: solid obtained by the process of the example

SMILES | Particle size distribution d10 [μ] | Particle size distribution d50 [μ] | Particle size distribution d90 [μ]
CCCCC(=O)N(Cc1ccc(-c2ccccc2-c2nnn[nH]2)cc1)[C@H](C(=O)O)C(C)C [Example 5 A, Valsartan] | 1.869 | 18.401 | 202
CCCCC(=O)N(Cc1ccc(-c2ccccc2-c2nnn[nH]2)cc1)[C@H](C(=O)O)C(C)C [Example 3, Valsartan] | 1.5421 | 3.850 | 7.869

Continued, values first:

Particle size distribution d10 [μ] | Particle size distribution d50 [μ] | Particle size distribution d90 [μ] | SMILES
2.011 | 4.636 | 8.611 | CCCCC(=O)N(Cc1ccc(-c2ccccc2-c2nnn[nH]2)cc1)[C@H](C(=O)O)C(C)C [Example 4, Valsartan]
0.71 | 2.687 | 8.42 | CCCCC(=O)N(Cc1ccc(-c2ccccc2-c2nnn[nH]2)cc1)[C@H](C(=O)O)C(C)C [Example 5 B, Valsartan]
1.686 | 4.420 | 8.684 | CCCCC(=O)N(Cc1ccc(-c2ccccc2-c2nnn[nH]2)cc1)[C@H](C(=O)O)C(C)C [Example 2, Valsartan]
1.906 | 4.134 | 7.554 | CCCCC(=O)N(Cc1ccc(-c2ccccc2-c2nnn[nH]2)cc1)[C@H](C(=O)O)C(C)C [Example 1, Valsartan]

Reference: patent US20090304797A1, “Process for the Preparation of Micronized Valsartan” (priority 2006, published 2009)
